{
  "source": "paper PMC8087159",
  "about": "(Bioconjugate chemistry, 2021)",
  "key": {"[1]": {"conditions": "3.5 μmol per mouse oral gavage; for original drug in the eye / liver accumulation of N-retinylamides: 2 and 16 h; for N-retinylamides in the eye: 16 h"}, "ARPE19 cells": {"test_system": "ARPE19 cells", "experiment": "ARPE19 cell uptake", "assay_type": "in vitro ADME, human", "conditions": "10 μM, 16 h; compared with Ret-NH2"}, "RPE65 [2]": {"biological_target": "RPE65 (Bos taurus, UniProt Q28175)", "sequence (Q28175 whole entry)": "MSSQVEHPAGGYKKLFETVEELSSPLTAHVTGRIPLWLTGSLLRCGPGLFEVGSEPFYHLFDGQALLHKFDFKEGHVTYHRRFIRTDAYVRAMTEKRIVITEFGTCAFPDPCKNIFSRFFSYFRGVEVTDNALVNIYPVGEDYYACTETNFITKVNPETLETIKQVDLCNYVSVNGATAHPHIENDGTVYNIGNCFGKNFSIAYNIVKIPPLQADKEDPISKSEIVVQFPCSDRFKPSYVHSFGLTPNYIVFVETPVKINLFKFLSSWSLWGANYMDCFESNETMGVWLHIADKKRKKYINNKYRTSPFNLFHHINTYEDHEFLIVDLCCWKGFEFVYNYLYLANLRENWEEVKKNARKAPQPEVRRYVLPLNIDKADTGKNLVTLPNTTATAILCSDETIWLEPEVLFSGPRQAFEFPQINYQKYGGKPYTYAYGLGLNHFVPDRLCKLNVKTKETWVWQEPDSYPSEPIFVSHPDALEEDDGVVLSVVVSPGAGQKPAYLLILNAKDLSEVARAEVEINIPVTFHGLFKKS", "experiment": "RPE microsome retinoid isomerase assay", "assay_type": "biochemical, Bovine", "conditions": "RPE microsomes, 0.5–10 μM compound, 10 μM all-trans-retinol, 1 h"}, "Caco-2 cell monolayer": {"test_system": "Caco-2 cell monolayer", "experiment": "Caco-2 cell monolayer transport", "assay_type": "in vitro ADME, human", "conditions": "500 μM in PBS pH 6 on apical side, 37 °C, within 24 h; compared with Ret-NH2"}, "RPE65 [3]": {"biological_target": "T1, RPE65 (Mus musculus, UniProt Q91ZQ5)", "T1 sequence (Q91ZQ5 2-533)": "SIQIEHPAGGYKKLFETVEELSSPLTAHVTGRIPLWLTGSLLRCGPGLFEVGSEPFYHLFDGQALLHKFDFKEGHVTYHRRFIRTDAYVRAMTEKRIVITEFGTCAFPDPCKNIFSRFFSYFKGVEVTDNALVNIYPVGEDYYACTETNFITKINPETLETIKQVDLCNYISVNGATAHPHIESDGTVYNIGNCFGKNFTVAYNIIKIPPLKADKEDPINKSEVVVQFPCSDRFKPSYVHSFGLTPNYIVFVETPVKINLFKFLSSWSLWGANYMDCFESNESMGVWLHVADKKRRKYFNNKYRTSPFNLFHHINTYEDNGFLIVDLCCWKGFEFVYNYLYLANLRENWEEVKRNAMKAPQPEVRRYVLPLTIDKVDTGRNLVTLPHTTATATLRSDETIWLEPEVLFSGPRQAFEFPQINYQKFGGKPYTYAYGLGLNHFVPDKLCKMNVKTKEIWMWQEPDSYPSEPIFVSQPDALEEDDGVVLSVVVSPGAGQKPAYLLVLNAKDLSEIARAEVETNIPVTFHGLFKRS", "experiment": "In vivo RPE65 inhibition", "conditions": "1.75 μmol/mouse oral gavage 16 h before bleach 10 min at 7000 lx; 24 h in the dark"}, "[4]": {"test_system": "light-induced retinal degeneration in Abca4^−/−Rdh8^−/− mice", "experiment": "Retinal histology", "assay_type": "in vivo", "conditions": "drug before intense light exposure; 7 days after light exposure"}, "[5]": {"test_system": "retinal function of C57BL/6J WT mice", "experiment": "ERG scotopic a-waves in wild-type mice after drug treatment", "assay_type": "in vivo", "conditions": "1.75 μmol per mouse gastric gavage 16 h prior to ERG"}, "RPE65 [6]": {"biological_target": "T2, RPE65 (Homo sapiens, UniProt Q16518)", "T2 sequence (Q16518 1-533)": "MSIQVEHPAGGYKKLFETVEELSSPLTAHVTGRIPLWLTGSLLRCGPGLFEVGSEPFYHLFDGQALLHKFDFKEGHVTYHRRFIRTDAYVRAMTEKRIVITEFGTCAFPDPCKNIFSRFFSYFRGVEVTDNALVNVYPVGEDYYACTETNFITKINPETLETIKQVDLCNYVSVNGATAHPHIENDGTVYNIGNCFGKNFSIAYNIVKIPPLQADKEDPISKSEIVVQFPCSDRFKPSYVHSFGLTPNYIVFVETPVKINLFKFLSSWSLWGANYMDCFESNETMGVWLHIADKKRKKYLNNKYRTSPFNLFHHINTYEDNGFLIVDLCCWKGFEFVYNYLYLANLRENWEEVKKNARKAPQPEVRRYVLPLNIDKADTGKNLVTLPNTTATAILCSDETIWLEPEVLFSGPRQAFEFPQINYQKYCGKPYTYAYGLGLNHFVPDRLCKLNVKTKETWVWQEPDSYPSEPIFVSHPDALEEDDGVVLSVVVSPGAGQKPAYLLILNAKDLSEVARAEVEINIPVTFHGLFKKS", "assay_type": "cell-based", "conditions": "NIH3T3 cells, 4.5 μM drug, 10 μM all-trans-retinol, 16 h"}, "Storage stability": {"experiment": "Storage stability", "assay_type": "physicochemical"}, "[7]": {"conditions": "mouse, in vivo, po"}, "[8]": {"conditions": "cited from earlier work"}, "[9]": {"test_system": "light-induced retinal degeneration in Abca4^−/−Rdh8^−/− mice", "experiment": "ERG scotopic a-waves after light-induced retinal degeneration", "conditions": "1.9 μmol/mouse gastric gavage 16 h prior to light illumination; measured 7 days after drug administration and illumination"}},
  "note": "“Also recorded” adds a separate entry of the source. Where two headings read alike, the source gives them in different places.",
  "data": [
    {"compound": "CC1=C(/C=C/C(C)=C/C=C/C(C)=C/CNC(=O)[C@@H](N)Cc2ccccc2)C(C)(C)CCC1", "note": "[RF]", "values": [
      {"measurement": "original drug in the eye", "setting": "[1]", "value": "detected only at 2 h"},
      {"measurement": "N-retinylamides in the eye", "setting": "[1]", "value": "comparable to that of Ret-NH2"},
      {"measurement": "uptake by ARPE19 cells", "setting": "ARPE19 cells", "value": "higher uptake"},
      {"measurement": "inhibition of RPE65 activity (11-cis-retinol production)", "setting": "RPE65 [2]", "value": "minor inhibitory effects"},
      {"measurement": "transport through the Caco-2 monolayer", "setting": "Caco-2 cell monolayer", "value": "significantly higher transport"}
    ]},
    {"compound": "CC1=C(/C=C/C(C)=C/C=C/C(C)=C/CNC(=O)CN)C(C)(C)CCC1", "note": "[RG]", "values": [
      {"measurement": "liver accumulation of N-retinylamides", "setting": "[1]", "value": "lower liver accumulations of N-retinylamides than did RF and RL"},
      {"measurement": "original drug in the eye", "setting": "[1]", "value": "detected in the eyes at 2 and 16 h at relatively high concentrations"},
      {"measurement": "N-retinylamides in the eye", "setting": "[1]", "value": "comparable to that of Ret-NH2"}
    ]},
    {"compound": "CC1=C(/C=C/C(C)=C/C=C/C(C)=C/CNC(=O)[C@@H](N)CC(C)C)C(C)(C)CCC1", "note": "[RL]", "values": [
      {"measurement": "original drug in the eye", "setting": "[1]", "value": "detected only at 2 h"},
      {"measurement": "N-retinylamides in the eye", "setting": "[1]", "value": "comparable to that of Ret-NH2"}
    ]},
    {"compound": "CC1=C(/C=C/C(C)=C/C=C/C(C)=C/CNC(=O)CNC(=O)[C@@H](N)C(C)C)C(C)(C)CCC1", "note": "[RVG, Ret-NH2-L-valylglycine amide]", "values": [
      {"measurement": "liver accumulation of N-retinylamides", "setting": "[1]", "value": "lower liver accumulations of N-retinylamides than did RF and RL"},
      {"measurement": "original drug in the eye", "setting": "[1]", "value": "detected only at 16 h"},
      {"measurement": "N-retinylamides in the eye", "setting": "[1]", "value": "no detectable N-retinylamides"},
      {"measurement": "uptake by ARPE19 cells", "setting": "ARPE19 cells", "value": "higher uptake"},
      {"measurement": "inhibition of RPE65 activity (11-cis-retinol production)", "setting": "RPE65 [2]", "value": "did not affect significant inhibition; also recorded: no inhibitory effect"},
      {"measurement": "regeneration of 11-cis-retinal in the eye", "setting": "RPE65 [3]", "value": "greater regeneration of 11-cis-retinal"},
      {"measurement": "retinal structure by histology (H&E)", "setting": "[4]", "value": "maintained an intact retinal structure"},
      {"measurement": "transport through the Caco-2 monolayer", "setting": "Caco-2 cell monolayer", "value": "significantly higher transport"},
      {"measurement": "recovery of retinal function (ERG)", "setting": "[5]", "value": "rapid recovery of retinal function"},
      {"measurement": "11-cis-retinol production", "setting": "RPE65 [6]", "value": "easily detected"},
      {"measurement": "degradation on storage", "setting": "Storage stability; stored in a desiccator under vacuum at room temperature for 2 months", "value": "Less than 5%"}
    ]},
    {"compound": "CC1=C(/C=C/C(C)=C/C=C/C(C)=C/CNC(=O)[C@@H](N)C(C)C)C(C)(C)CCC1", "note": "[RV]", "values": [
      {"measurement": "N-retinylamides in the eye", "setting": "[7]", "value": "no detectable N-retinylamides"},
      {"measurement": "liver accumulation of N-retinylamides", "setting": "[7]", "value": "lower liver accumulations of N-retinylamides than did RF and RL"},
      {"measurement": "original drug in the eye", "setting": "[7]", "value": "detected in the eyes at 2 and 16 h at relatively high concentrations"}
    ]},
    {"compound": "CC1=C(/C=C/C(C)=C/C=C/C(C)=C/CN)C(C)(C)CCC1", "note": "[Ret-NH2, Retinylamine, reference compound]", "values": [
      {"measurement": "original drug in the eye", "setting": "[1]", "value": "No Ret-NH2 was detected at 2 and 16 h in the eye"},
      {"measurement": "N-retinylamide concentration in liver", "setting": "[1]; 2 h", "value": "much higher liver concentrations"},
      {"measurement": "inhibition of RPE65 activity (11-cis-retinol production)", "setting": "RPE65 [2]", "value": "concentration-dependent inhibition"},
      {"measurement": "regeneration of 11-cis-retinal in the eye", "setting": "RPE65 [3]", "value": "much lower concentration of 11-cis-retinal than the untreated controls"},
      {"measurement": "11-cis-retinol production", "setting": "RPE65 [6]", "value": "virtually ablated 11-cis-retinol production"},
      {"measurement": "decomposed on storage", "setting": "Storage stability; desiccator under vacuum at room temperature, within 1 week", "value": 95, "unit": "%"}
    ]},
    {"compound": "Nc1nc2c(ncn2COCCO)c(=O)[nH]1", "note": "[acyclovir]", "values": [
      {"measurement": "oral bioavailability (Fo)", "setting": "[8]; in vivo, po", "value": "~ 16%"}
    ]},
    {"compound": "COc1ccc(OC)c(C(O)CN)c1", "note": "(stereo not drawn) [desglymidodrine]", "values": [
      {"measurement": "oral bioavailability", "setting": "[8]; desglymidodrine to midodrine", "value": 50, "unit": "%"}
    ]},
    {"compound": "Emixustat-L-Val-Gly amide [EVG]", "values": [
      {"measurement": "ERG activities (scotopic a-waves)", "setting": "[9]", "value": "only slight decrease of ERG activities"}
    ]}
  ]
}
